Test results from publication PMC2788029 (Journal of molecular biology, 2009).
“Also recorded” adds a separate entry of the source. Like-named read-outs stand apart in the source and are kept apart here.

What was measured:
T4 lysozyme L99A/M102Q [1] = biological target: T1, T4 lysozyme L99A/M102Q (Enterobacteria phage T4, UniProt P00720, C54T/C97A/L99A/M102Q); assay: biochemical; assay type: binding
T4 lysozyme L99A/M102Q [2] = biological target: T1, T4 lysozyme L99A/M102Q; settings: cited from earlier work
T4 lysozyme L99A/M102Q [3] = biological target: T1, T4 lysozyme L99A/M102Q; assay type: binding
[4] = free energy of binding by ITC at 10°C, pH 6.8, prospective set

## O=Nc1ccccc1 [nitrosobenzene]
T4 lysozyme L99A/M102Q [1]
  binding free energy, estimated: -3.88 to -2.59 kcal/mol
  ΔGb,exp (binding class): weak
T4 lysozyme L99A/M102Q [1]; affinity estimated from concentration where significant Tm upshift was observed
  Kd: ~1000 µM

## Nc1ccccc1O [2-aminophenol]
T4 lysozyme L99A/M102Q [2]
  binding to L99A/M102Q (known): non-binder; also recorded: does not bind detectably

## Clc1cn[nH]c1 [4-chloro-1h-pyrazole]
T4 lysozyme L99A/M102Q [1]
  binding free energy, estimated: -3.88 to -2.59 kcal/mol
  ΔGb,exp (binding class): weak

## CCc1ccccc1O [2-ethylphenol]
T4 lysozyme L99A/M102Q [3]
  ΔGb,exp: -4.57 ± 0.11 kcal/mol

## CC(=O)OCc1ccccc1 [benzyl acetate]
T4 lysozyme L99A/M102Q [3]; [4]
  ΔGb,exp: -4.48 ± 0.16 kcal/mol

## Cc1ccccc1O [2-methylphenol]
T4 lysozyme L99A/M102Q [3]
  ΔGb,exp: -4.44 ± 0.11 kcal/mol

## CCCc1ccccc1O [2-propylphenol]
T4 lysozyme L99A/M102Q [3]
  ΔGb,exp: -5.33 ± 0.05 kcal/mol

## c1cc2c([nH]1)CCCC2 [4,5,6,7-tetrahydroindole]
T4 lysozyme L99A/M102Q [3]; [4]
  ΔGb,exp: -4.61 ± 0.09 kcal/mol

## O=[N+]([O-])c1cccs1 [2-nitrothiophene]
T4 lysozyme L99A/M102Q [3]; [4]
  ΔGb,exp: -4.85 ± 0.25 kcal/mol

## c1cc2sccc2s1 [thieno[3,2-b]thiophene]
T4 lysozyme L99A/M102Q [3]; [4]
  ΔGb,exp: -4.67 ± 0.17 kcal/mol

## Oc1ccccc1O [catechol, reference compound]
T4 lysozyme L99A/M102Q [3]
  ΔGb,exp: -4.16 ± 0.03 kcal/mol
T4 lysozyme L99A/M102Q [2]; known ligands and non-binders
  binding to L99A/M102Q (known): is a ligand

## CCOC1CCC=CO1 (stereo not drawn) [2-ethoxy-3,4-dihydro-2h-pyran]
T4 lysozyme L99A/M102Q [1]
  binding free energy, estimated: -3.88 to -2.59 kcal/mol
  ΔGb,exp (binding class): weak

## Oc1ccccc1 [phenol]
T4 lysozyme L99A/M102Q [2]
  ΔGb,exp: -5.24 kcal/mol

## C=Cc1ccncc1 [4-vinylpyridine]
T4 lysozyme L99A/M102Q [2]; known ligands and non-binders
  binding to L99A/M102Q (known): non-binder

## CCOc1ccccc1O [2-ethoxyphenol]
T4 lysozyme L99A/M102Q [3]
  ΔGb,exp: -4.02 ± 0.03 kcal/mol

## Cc1ccc(Cl)cc1O [5-chloro-2-methylphenol]
T4 lysozyme L99A/M102Q [3]
  ΔGb,exp: -5.04 ± 0.07 kcal/mol
